Measurements as given in patent US11583572B2, “Encapsulation of ultra-stable insulin analogues with polymer melts” (CASE WESTERN RESERVE UNIVERSITY, priority 2015, dated 2023).
Bridges are numbered along the chain shown (N, C = ends). Where no end group is shown, it is not given here.

Experiments:
[1] = target: A isoform of the insulin receptor (Homo sapiens, UniProt P06213)
[2] = Elution of protein from PLGA polymer cylinders in phosphate-buffered saline (Bradford assay calibrated by ELISA); type: physicochemical; settings: 5% PEG, PBS pH 7.4, 37° C.
Description: FIG. 4 is a graph showing elution of ultra-stable single-chain analogue (SCI) from PLGA polymer (50-50%) in phosphate-buffered saline (pH 7.4 and 37° C.). Horizontal axis denotes soaking time. Vertical axis denotes nanograms of insulin analogue (dark gray triangles) or relative Bradford-active material in control polymers containing hen egg white lysozyme (light gray squares) or no protein (dark gray diamonds). The latter represents background signal in the Bradford assay due to non-protein material. Horizontal plateau at days 10-15 represents no further elution of protein from the polymers. Samples were made with 5% PEG (mean molecular mass 8 kDa) to optimize the near-linear rate of SCI elution between 1-10 days. Immediate burst release of a portion of the material is not shown.
Elution of insulin analogue protein from a polymer melt in phosphate buffered saline (PBS) at pH 7.4 was also examined. Test cylindrical polymers were prepared with 50%-50% PLGA containing 25% weight/weight of a single-chain insulin (SCI) analogue stabilized by a fourth disulfide bridge between residues B4 and A10. […]
The cumulative amounts of protein released are also provided below in Table 1. In this table the micrograms of insulin corresponding to the Bradford assay was verified by ELISA whereas the readings for lysozyme are uncalibrated by an independent assay.

Sequence of A isoform of the insulin receptor (P06213 28-746 isoform P06213-2 limits assumed): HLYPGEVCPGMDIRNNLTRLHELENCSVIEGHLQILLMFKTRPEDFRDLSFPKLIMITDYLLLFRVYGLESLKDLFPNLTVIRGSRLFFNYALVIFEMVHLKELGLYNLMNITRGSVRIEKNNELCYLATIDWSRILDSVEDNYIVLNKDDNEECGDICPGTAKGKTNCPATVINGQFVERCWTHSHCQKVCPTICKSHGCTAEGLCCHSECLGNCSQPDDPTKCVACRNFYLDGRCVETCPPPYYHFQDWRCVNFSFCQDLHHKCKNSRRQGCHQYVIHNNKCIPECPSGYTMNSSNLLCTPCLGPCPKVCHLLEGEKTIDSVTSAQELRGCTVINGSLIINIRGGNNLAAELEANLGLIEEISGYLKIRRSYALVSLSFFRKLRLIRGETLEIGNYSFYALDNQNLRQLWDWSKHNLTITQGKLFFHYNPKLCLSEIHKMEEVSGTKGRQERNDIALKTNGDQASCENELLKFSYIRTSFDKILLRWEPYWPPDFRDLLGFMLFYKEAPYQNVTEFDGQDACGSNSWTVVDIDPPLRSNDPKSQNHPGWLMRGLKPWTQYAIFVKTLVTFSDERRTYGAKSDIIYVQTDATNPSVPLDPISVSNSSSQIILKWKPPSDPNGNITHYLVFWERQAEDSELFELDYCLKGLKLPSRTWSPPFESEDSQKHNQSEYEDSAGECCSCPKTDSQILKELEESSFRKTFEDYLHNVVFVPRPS
Sequence of A isoform of the insulin receptor (P06213 763-1382 partner limits assumed): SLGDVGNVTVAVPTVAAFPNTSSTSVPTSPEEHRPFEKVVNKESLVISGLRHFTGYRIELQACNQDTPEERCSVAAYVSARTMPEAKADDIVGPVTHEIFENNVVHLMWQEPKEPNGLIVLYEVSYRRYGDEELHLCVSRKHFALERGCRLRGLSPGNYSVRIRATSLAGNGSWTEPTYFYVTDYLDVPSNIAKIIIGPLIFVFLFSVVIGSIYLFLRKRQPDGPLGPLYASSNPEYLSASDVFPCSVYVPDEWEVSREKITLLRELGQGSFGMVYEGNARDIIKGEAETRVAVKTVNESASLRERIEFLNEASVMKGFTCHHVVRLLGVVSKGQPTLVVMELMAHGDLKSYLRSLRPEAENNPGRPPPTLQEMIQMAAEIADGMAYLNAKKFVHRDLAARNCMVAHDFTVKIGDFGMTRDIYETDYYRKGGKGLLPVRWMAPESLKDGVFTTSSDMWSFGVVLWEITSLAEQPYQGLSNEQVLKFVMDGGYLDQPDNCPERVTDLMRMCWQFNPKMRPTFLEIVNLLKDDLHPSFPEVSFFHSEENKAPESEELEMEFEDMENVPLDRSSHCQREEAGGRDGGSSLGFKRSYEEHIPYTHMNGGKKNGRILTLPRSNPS

Substance	affinity for the A isoform of the insulin receptor relative to human insulin [1] [%]	protein release from PLGA polymer during days 10-15 [2]
FVNCHLCGSHLVEALYLVCGERGFFYTDPTEEGPRRGIVEQCCHSCCSLEQLENYCN (disulfide 4-46, 7-43, 19-56, 42-47) [4SS 81-04]	120±20	–
hen egg-white lysozyme: control protein in analogous co-polymer instead of an insulin analogue	–	no further release
